Values joined by “and” are separate entries in the source; they are usually repeats but may differ in a detail not shown here. Equal entries are not always repeated. Toxic doses and inconclusive results are not listed.
Tested on: BDF1 mice, P388 leukemia ip, median survival T/C
Assay: NCI In Vivo Anticancer Drug Screen. Data for tumor model P388 Leukemia (intraperitoneal) in B6D2F1 (BDF1) mice
Conditions: endpoint: median survival time, higher = longer survival
Method in brief: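 Transplantable tumour in mice; compound vs vehicle dosing; survival scored; ratio of treated to control reported.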

[1] = dose: 100.0 mg/kg/injection, schedule: Q04DX003 (ip), vehicle: saline with Tween-80
[2] = dose: 200.0 mg/kg/injection, schedule: Q04DX003 (ip), vehicle: saline with Tween-80
[3] = dose: 400.0 mg/kg/injection, schedule: Q04DX003 (ip), vehicle: saline with Tween-80
[4] = dose: 100.0 mg/kg/injection, schedule: Q01DX009 (ip), vehicle: other
[5] = dose: 100.0 mg/kg/injection, schedule: Q01DX009 (ip), vehicle: saline with Tween-80

COC(=O)CNC(=O)C(Cc1ccc(OCc2ccccc2)cc1)NC(=O)OC(C)(C)C (stereo unspecified)
T/C [1]: 105 % of control
T/C [2]: 120 % of control
T/C [3]: 120 % of control

C1CC[N-]CC1.C1CC[N-]CC1.C1CC[N-]CC1.C1CC[N-]CC1.[Cl][Co][Cl]
T/C (dose: 25.0 mg/kg/injection, schedule: Q01DX009 (ip), vehicle: saline with Tween-80): 118 % of control
T/C (dose: 33.0 mg/kg/injection, schedule: Q01DX009 (ip), vehicle: saline with Tween-80): 100 % of control
T/C (dose: 75.0 mg/kg/injection, schedule: Q01DX009 (ip), vehicle: saline with Tween-80): 120 % of control

Cc1nc2c(NC(=O)C(F)(F)F)nn(C)c2nc1C
T/C [1]: 100 % of control
T/C [2]: 104 % of control
T/C [3]: 100 % of control

C/C=C(/C)C(=O)O[C@H]1CCN2CC=C(COC(=O)[C@@](O)([C@H](C)OC)C(C)(C)O)[C@H]12
T/C (dose: 12.5 mg/kg/injection, schedule: Q01DX010 (ip), vehicle: saline): 95 % of control
T/C (dose: 25.0 mg/kg/injection, schedule: Q01DX010 (ip), vehicle: saline): 100 % of control

COc1ccc(CC#N)c(OCc2ccccc2)c1
T/C (dose: 12.5 mg/kg/injection, schedule: Q01DX009 (ip), vehicle: other): 104 % of control
T/C (dose: 25.0 mg/kg/injection, schedule: Q01DX009 (ip), vehicle: other): 102 % of control
T/C (dose: 50.0 mg/kg/injection, schedule: Q01DX009 (ip), vehicle: other): 98 % of control
T/C [4]: 89 % of control
T/C (dose: 200.0 mg/kg/injection, schedule: Q01DX009 (ip), vehicle: other): 95 % of control

N#Cc1c2c(c(O)[nH]c1=O)CCCC2
T/C [5]: 120 % of control
T/C (dose: 200.0 mg/kg/injection, schedule: Q01DX009 (ip), vehicle: saline with Tween-80): 105 % of control
T/C (dose: 400.0 mg/kg/injection, schedule: Q01DX009 (ip), vehicle: saline with Tween-80): 120 % of control

CCCCOCN(CCCc1ccccc1)COCCCC
T/C [5]: 121 % of control

COc1cc2c(cc1OC)-c1ccc3cc4c(cc3c1N(C)C2)OCO4
T/C (dose: 10.0 mg/kg/injection, schedule: Q01DX009 (ip), vehicle: other): 123 % of control
T/C (dose: 40.0 mg/kg/injection, schedule: Q01DX009 (ip), vehicle: other): 155 % of control

CC(C)C1OC(=O)C=C2C3(C)CC=CC4(C)C(=O)OC(C43)C3OC213 (stereo unspecified)
T/C (dose: 5.0 micrograms/kg/injection, schedule: Q01DX009 (ip), vehicle: saline + alcohol): 109 % of control
T/C (dose: 20.0 micrograms/kg/injection, schedule: Q01DX009 (ip), vehicle: saline + alcohol): 100 % of control
T/C (dose: 80.0 micrograms/kg/injection, schedule: Q01DX009 (ip), vehicle: saline + alcohol): 90 % of control
T/C (dose: 250.0 micrograms/kg/injection, schedule: Q01DX009 (ip), vehicle: saline + alcohol): 109 % of control
T/C (dose: 1000.0 micrograms/kg/injection, schedule: Q01DX009 (ip), vehicle: saline + alcohol): 109 % of control
T/C (dose: 4000.0 micrograms/kg/injection, schedule: Q01DX009 (ip), vehicle: saline + alcohol): 104 % of control

COC(=O)C1CCN1C(C)(C)C (stereo unspecified)
T/C (dose: 100.0 mg/kg/injection, schedule: Q04DX003 (ip), vehicle: saline): 100 % of control
T/C (dose: 200.0 mg/kg/injection, schedule: Q04DX003 (ip), vehicle: saline): 90 % of control
T/C (dose: 400.0 mg/kg/injection, schedule: Q04DX003 (ip), vehicle: saline): 90 % of control

CCCCCCCCCCCCS(=O)CC(C)O (stereo unspecified)
T/C [4]: 123 % of control

O=C(NC(Cc1ccccc1)C(=O)Oc1ccc(Cl)cc1)OCc1ccccc1 (stereo unspecified)
T/C (dose: 100.0 mg/kg/injection, schedule: Q04DX002 (ip), vehicle: saline with Tween-80): 101 % of control
T/C (dose: 200.0 mg/kg/injection, schedule: Q04DX002 (ip), vehicle: saline with Tween-80): 94 % of control
T/C (dose: 400.0 mg/kg/injection, schedule: Q04DX002 (ip), vehicle: saline with Tween-80): 100 % of control and 91 % of control

COC(=O)C(CO)NC(=O)OCc1ccc(OC)cc1 (stereo unspecified)
T/C (dose: 12.5 mg/kg/injection, schedule: Q01DX009 (ip), vehicle: distilled water + Tween-80): 87 % of control
T/C (dose: 25.0 mg/kg/injection, schedule: Q01DX009 (ip), vehicle: distilled water + Tween-80): 89 % of control
T/C (dose: 50.0 mg/kg/injection, schedule: Q01DX009 (ip), vehicle: distilled water + Tween-80): 104 % of control
T/C (dose: 100.0 mg/kg/injection, schedule: Q01DX009 (ip), vehicle: distilled water + Tween-80): 114 % of control

CCOc1cc(C=Nc2cccc(C(F)(F)F)c2)ccc1O
T/C (dose: 100.0 mg/kg/injection, schedule: Q04DX003 (ip), vehicle: other): 95 % of control
T/C (dose: 400.0 mg/kg/injection, schedule: Q04DX003 (ip), vehicle: other): 95 % of control

Reference: PubChem BioAssay AID328 (DTP/NCI, 2004)
